The target in the experiment is T1, yeast α-glucosidase (Saccharomyces cerevisiae, UniProt P53341).
T1 construct: purchased Sigma-Aldrich
Description: microplate-based α-glucosidase inhibition assay (pNPG substrate). Particulars: pH 6.8, 37°C, 30 min, means ± SD, n = 3. It is filed as biochemical, Saccharomyces cerevisias. The text has this:
Acetonitrile (HPLC grade) and acetic acid (HPLC grade) were purchased from Merck (Darmstadt, Germany), and methanol (AR grade) was purchased from Kaitong (Tianjin, China). Sodium carbonate was purchased from BDH Laboratory Supplies (Poole, Dorset, UK). α-Glucosidase type 1 ([…] from Saccharomyces cerevisias) and 4-nitrophenyl α-D-glucopyranoside (pNPG) were purchased from Sigma-Aldrich (St. Louis, MO, USA). Ultra-pure water was purified using a Millipore Milli Q-Plus system (Billerica, MA, USA). […] Silica gel (200–300 mesh) was purchased from Qingdao Haiyang Chemical Co. Ltd. (Qingdao, China). Macroporous absorption resin (D101) was purchased from Haiguang Chemical Industrial Co. (Tianjin, China). Sephadex LH-20 was purchased from GE Healthcare Bio-Sciences AB (Uppsala, Sweden), and the Millex® nylon membrane syringe filter was purchased from Millipore (Billerica, MA, USA).
The yeast α-glucosidase inhibitory activities of the four flavonoids were determined by a microplate-based method with a slight modification. […] The 4-nitrophenol absorption was measured at 405 nm. […] The inhibitory activity was calculated using the following formula: […]
where AS, ASB, AC, and ACB are the absorbances of sample, sample blank, control, and control blank, respectively.

T1 sequence (P53341 whole entry): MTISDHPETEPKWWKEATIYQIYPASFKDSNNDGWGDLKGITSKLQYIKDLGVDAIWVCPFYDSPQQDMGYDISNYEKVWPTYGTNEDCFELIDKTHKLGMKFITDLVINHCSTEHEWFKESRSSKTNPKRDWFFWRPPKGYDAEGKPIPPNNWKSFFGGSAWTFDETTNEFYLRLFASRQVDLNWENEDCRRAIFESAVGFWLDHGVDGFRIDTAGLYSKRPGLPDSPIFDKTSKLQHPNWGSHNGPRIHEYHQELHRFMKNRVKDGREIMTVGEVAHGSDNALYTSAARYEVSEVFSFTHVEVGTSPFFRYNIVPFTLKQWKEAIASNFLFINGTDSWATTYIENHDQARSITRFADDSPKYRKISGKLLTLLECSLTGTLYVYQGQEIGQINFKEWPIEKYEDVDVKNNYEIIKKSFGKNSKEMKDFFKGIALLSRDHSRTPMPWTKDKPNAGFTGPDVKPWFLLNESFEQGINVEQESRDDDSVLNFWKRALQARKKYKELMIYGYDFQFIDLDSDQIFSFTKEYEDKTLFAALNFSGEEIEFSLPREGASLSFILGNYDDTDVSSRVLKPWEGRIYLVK

Turning to `C[C@@H]1O[C@@H](OC[C@H]2O[C@@H](Oc3c(-c4ccc(O)c(O)c4)oc4cc(O)cc(O)c4c3=O)[C@H](O)[C@@H](O)[C@@H]2O)[C@H](O)[C@H](O)[C@H]1O` [flavonoid 1, rutin], the IC50 was determined as 13.2 µM.

On to `O=c1c(O[C@@H]2O[C@H](CO)[C@@H](O)[C@H](O)[C@H]2O)c(-c2ccc(O)c(O)c2)oc2cc(O)cc(O)c12` [flavonoid 2, isoquercetin], for which the 50% inhibitory concentration (IC50) came out at 117 µM.

For the origin of these results see PMC4016240, “Flavonoids with α-glucosidase inhibitory activities and their contents in the leaves of Morus atropurpurea” (Chinese Medicine, 2013).
